Results reported in ChEMBL document CHEMBL1201862, “PubChem BioAssay data set” (2004).
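Five concentrations, 48 hours, 96-well plates. Abbreviation: GI50, concentration required for 50% inhibition of growth.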 Activity calls are given as the source filed them. Rule as the data show it: active = GI50 up to about 1.1 µM and inactive = higher.

Key:
Experiment in all cases: NCI anticancer screen, dose series, 48 h
COLO 205 = system: COLO 205
EKVX = system: EKVX
HCC 2998 = system: HCC 2998
KM12 = system: KM12
M14 = system: M14
MOLT-4 = system: MOLT-4
NCI-H226 = system: NCI-H226
NCI-H522 = system: NCI-H522
OVCAR-3 = system: OVCAR-3
SF-539 = system: SF-539
SK-MEL-2 = system: SK-MEL-2
SK-OV-3 = system: SK-OV-3
SNB-75 = system: SNB-75
U-251 = system: U-251
UACC-62 = system: UACC-62
LOX IMVI = system: LOX IMVI

Measured: GI50

COc1ccc(/C=C\c2cc(OC)c(OC(C)=O)c(OC)c2)cc1
inactive: COLO 205 34.4 µM | EKVX 15.6 µM | HCC 2998 10.7 µM | KM12 5.06 µM | M14 18.2 µM | MOLT-4 6.43 µM | NCI-H226 27.4 µM | NCI-H522 15.5 µM | OVCAR-3 20.8 µM | SF-539 2.32 µM | SK-MEL-2 7.53 µM | SK-OV-3 51.8 µM | SNB-75 2.84 µM | U-251 4.21 µM | UACC-62 8.15 µM

CC(C)(C)NN=C1C(C)(C)C(=NNC(C)(C)C)C1(C)C
inactive: COLO 205 > 100 µM | HCC 2998 > 100 µM | KM12 > 100 µM | LOX IMVI > 100 µM | M14 > 100 µM | MOLT-4 > 100 µM | NCI-H226 > 100 µM | NCI-H522 > 100 µM | OVCAR-3 > 100 µM | SF-539 > 100 µM | SK-OV-3 > 100 µM | SNB-75 > 100 µM | U-251 > 100 µM | UACC-62 > 100 µM

C=C(C)C1CCC2(C)CC1c1c(c(C)cc3c1[nH]c1ccccc13)O2 (stereo not drawn)
inactive: COLO 205 > 25 µM | HCC 2998 > 25 µM | KM12 > 25 µM | LOX IMVI > 25 µM | M14 > 25 µM | MOLT-4 17.5 µM | NCI-H226 16.7 µM | NCI-H522 15 µM | OVCAR-3 > 25 µM | SF-539 > 25 µM | SK-MEL-2 > 25 µM | SK-OV-3 > 25 µM | U-251 > 25 µM | UACC-62 > 25 µM

O=C(O)CCSC(=O)Nc1cccc2ccccc12
inactive: COLO 205 > 100 µM | EKVX > 100 µM | HCC 2998 > 100 µM | KM12 > 100 µM | LOX IMVI > 100 µM | M14 > 100 µM | MOLT-4 > 100 µM | NCI-H226 > 100 µM | OVCAR-3 > 100 µM | SF-539 > 100 µM | SK-OV-3 > 100 µM | SNB-75 > 100 µM | U-251 > 100 µM | UACC-62 > 100 µM

C=CCC1([C@H](C)[C@@H](OC(C)=O)c2cc(OC)c(OC)c(OC)c2)C[C@@H](OC)CCC1=O (stereo partly drawn)
inactive: COLO 205 19.1 µM | EKVX 26.2 µM | KM12 16.4 µM | M14 15.6 µM | MOLT-4 18.6 µM | NCI-H226 22.5 µM | NCI-H522 11.1 µM | OVCAR-3 20.7 µM | SF-539 16.4 µM | SK-MEL-2 15.3 µM | SK-OV-3 59.4 µM | SNB-75 18 µM | U-251 13.8 µM | UACC-62 16.1 µM

C/C(CN1C(=O)c2ccccc2C1=O)=N\NS(C)(=O)=O
inactive: COLO 205 > 100 µM | EKVX > 100 µM | HCC 2998 > 100 µM | KM12 > 100 µM | M14 > 100 µM | MOLT-4 > 100 µM | NCI-H226 > 100 µM | NCI-H522 > 100 µM | OVCAR-3 > 100 µM | SF-539 > 100 µM | SK-MEL-2 > 100 µM | SK-OV-3 > 100 µM | SNB-75 > 100 µM | U-251 > 100 µM | UACC-62 > 100 µM

CC1CCC(O)C(C(O)CC2CC(=O)N(C)C(=O)C2)C1 (stereo not drawn)
inactive: COLO 205 > 100 µM | EKVX > 100 µM | HCC 2998 > 100 µM | KM12 > 100 µM | LOX IMVI > 100 µM | M14 > 100 µM | MOLT-4 > 100 µM | NCI-H226 > 100 µM | NCI-H522 > 100 µM | OVCAR-3 > 100 µM | SF-539 > 100 µM | SK-OV-3 > 100 µM | SNB-75 > 100 µM | U-251 > 100 µM | UACC-62 > 100 µM

O=C(Cc1ccccc1)NN1C(=O)C(Cl)C1c1ccc(O)cc1 (stereo not drawn)
inactive: COLO 205 > 100 µM | EKVX > 100 µM | HCC 2998 > 100 µM | KM12 > 100 µM | LOX IMVI > 100 µM | M14 > 100 µM | MOLT-4 > 100 µM | NCI-H226 > 100 µM | NCI-H522 > 100 µM | OVCAR-3 > 100 µM | SK-MEL-2 > 100 µM | SK-OV-3 > 100 µM | SNB-75 47.2 µM | U-251 > 100 µM | UACC-62 > 100 µM

Brc1ccc2c(c1)C1(c3cc(Br)ccc3-2)c2cc(Br)ccc2-c2ccc(Br)cc21
inactive: COLO 205 > 100 µM | EKVX > 100 µM | HCC 2998 > 100 µM | KM12 > 100 µM | LOX IMVI > 100 µM | M14 > 100 µM | MOLT-4 > 100 µM | NCI-H226 > 100 µM | NCI-H522 > 100 µM | OVCAR-3 > 100 µM | SF-539 > 100 µM | SK-MEL-2 > 100 µM | SK-OV-3 > 100 µM | U-251 > 100 µM | UACC-62 > 100 µM

O=C(c1ccccc1)C(c1ccccc1)C1(O)C(=O)Nc2c(Cl)ccc(Cl)c21 (stereo not drawn)
inactive: COLO 205 22.2 µM | EKVX 18.2 µM | HCC 2998 30.8 µM | KM12 18.2 µM | LOX IMVI 11.8 µM | M14 16.8 µM | MOLT-4 15.9 µM | NCI-H522 18.5 µM | OVCAR-3 17.4 µM | SF-539 20.3 µM | SK-MEL-2 21.2 µM | SK-OV-3 30.8 µM | SNB-75 16.8 µM | U-251 25.8 µM | UACC-62 15.6 µM

CC1=C(C#N)C(N)=C2C(C)=C(C#N)C(N)=C12
inactive: COLO 205 > 100 µM | EKVX > 100 µM | HCC 2998 > 100 µM | KM12 > 100 µM | LOX IMVI > 100 µM | M14 > 100 µM | MOLT-4 > 100 µM | NCI-H226 > 100 µM | NCI-H522 > 100 µM | OVCAR-3 > 100 µM | SF-539 > 100 µM | SK-OV-3 > 100 µM | SNB-75 > 100 µM | U-251 > 100 µM | UACC-62 > 100 µM

COC(=O)c1cc(Br)c(Br)n1C
inactive: COLO 205 > 100 µM | EKVX 42.7 µM | HCC 2998 > 100 µM | KM12 > 100 µM | LOX IMVI > 100 µM | M14 > 100 µM | MOLT-4 70.3 µM | NCI-H226 > 100 µM | NCI-H522 39.4 µM | OVCAR-3 > 100 µM | SF-539 > 100 µM | SK-OV-3 > 100 µM | SNB-75 > 100 µM | U-251 > 100 µM | UACC-62 > 100 µM

CCOC(=O)C(C)(c1c(C)[nH]c2ccccc12)c1c(C)[nH]c2ccccc12
inactive: EKVX 25.5 µM | HCC 2998 23.3 µM | KM12 14.2 µM | M14 14.4 µM | MOLT-4 13.6 µM | NCI-H226 13.5 µM | OVCAR-3 16 µM | SF-539 18.7 µM | SK-MEL-2 18.8 µM | SK-OV-3 26 µM | SNB-75 17.6 µM | U-251 16.9 µM | UACC-62 14.2 µM

C[N+](C)=c1nc(N2CCc3ccccc3C2)ss1.[O-][Cl+3]([O-])([O-])[O-]
inactive: COLO 205 42.8 µM | HCC 2998 > 100 µM | KM12 > 100 µM | M14 > 100 µM | MOLT-4 30.7 µM | NCI-H226 > 100 µM | NCI-H522 > 100 µM | OVCAR-3 82 µM | SF-539 > 100 µM | SK-MEL-2 > 100 µM | SK-OV-3 > 100 µM | SNB-75 83.6 µM | U-251 > 100 µM | UACC-62 > 100 µM
